According to article PMC5994430, “Mitochondrial Delivery of Phenol Substructure Triggers Mitochondrial Depolarization and Apoptosis of Cancer Cells” (Frontiers in Pharmacology, 2018):

Experiments:
[1] = test system: BEAS-2B cells; assay: Cell viability (neutral red); format: cell-based, Human; conditions: for IC50: Homo sapiens, BEAS-2B normal bronchial epithelial cells, cell viability, CompuSyn; for cell viability: BEAS-2B, 0.1, 1 or 10 μM, 72 h
Source text: (§1) Human colon cancer HT29 cells, colon-derived normal fibroblast CCD-18Co cells, lung cancer A549 cells, normal human bronchial epithelial (immortalized with adenovirus 12-SV40 virus hybrid Ad12SV40) BEAS-2B cells, breast cancer MDA-MB-231 cells, normal breast epithelial MCF10A cells, human osteosarcoma U-2OS cells were purchased from ATCC (Manassas, VA, United States). […] All subjects gave written informed consent in accordance with the Declaration of Helsinki. Cells were maintained in medium supplemented with 10% v/v fetal bovine serum, 1% v/v penicillin-streptomycin, 1% v/v L-glutamine. Morphological analysis was performed with a bright field microscope (Leica Microsystems, Wetzlar, Germany). At least 5 fields/experimental condition were examined.
(§2) LDH activity was measured in the extracellular medium and in the cell lysate: 50 μl of extracellular medium or 5 μl of cell lysate were incubated at 37°C with 5 mM NADH. The reaction was started by adding 20 mM pyruvic acid and was monitored for 6 min, measuring absorbance at 340 nm using a Synergy HT Multi-Detection Microplate Reader (Bio-Tek Instruments, Winoosky, MT, United States). […] Both intracellular and extracellular enzyme activities were expressed as μmol NADH oxidized/min/dish. The results were expressed as percentage of extracellular LDH versus total (intracellular plus extracellular) LDH. […] The absorbance of untreated cells was considered as 100% viability; the results were expressed as percentage of viable cells versus untreated cells. IC50 was calculated with the CompuSyn software^1.

[2] = Lipophilicity, shake-flask n-octanol/PBS pH 7.4; format: physicochemical; conditions: n-octanol/50 mM PBS pH 7.4, shake-flask, room temperature, at least six measurements
Description: The partition coefficient between n-octanol and PBS at pH 7.4 (log P) was obtained by shake-flask technique at room temperature. In the shake flask experiments 50 mM PBS pH 7.4 was used as aqueous phase; the organic (n-octanol) and aqueous phase (PBS) were mutually saturated by shaking for 4 h. The compounds were solubilised in the buffered aqueous phase at a concentration of 30 μg/ml and appropriate amounts of n-octanol were added. The two phases were shaken for about 20 min, by which time the partitioning equilibrium of solutes is reached, and then centrifuged (10000 rpm, 10 min). The concentration of the solutes was measured in the aqueous phase by UV spectrophotometer (UV-2501PC, Shimadzu); the values of absorbance (223, 268 and 275 nm) were interpolated in calibration curves obtained using standard solutions of compounds (concentration range 30–0.5 μg/ml; r^2 > 0.99). Each log P-value is an average of at least six measurement.

[3] = test system: BEAS-2B cells; assay: Mitochondrial/cytosolic distribution by LC-ESI-MS; format: cell-based, Human; conditions: 4 h incubation with 0.1 and 1 μM
Description: (§3) Mitochondria were isolated as reported ([Riganti et al., 2013a]). To isolate mitochondrial fractions, 5 × 10^6 cells were washed twice in ice-cold PBS, then lysed in 0.5 ml buffer A (50 mM Tris, 100 mM KCl, 5 mM MgCl2, 1.8 mM ATP, 1 mM EDTA; pH 7.2), supplemented with protease inhibitor cocktail III (Calbiochem. La Jolla, CA, United States), 1 mM phenylmethylsulfonyl fluoride and 250 mM NaF. Samples were clarified by centrifuging at 650 × g for 3 min at 4°C. The supernatant was collected and centrifuged at 13,000 × g for 5 min at 4°C. This supernatant, containing the cytosolic fraction, was stored at -80°C until the use. The pellet containing mitochondria was washed in 0.5 ml buffer A and re-suspended in 0.25 ml buffer B (250 mM sucrose, 15 mM K2HPO4, 2 mM MgCl2, 0.5 mM EDTA, 5% w/v, BSA). A 50 μl aliquot was sonicated and used for the measurement of protein content or Western blotting; the remaining part was stored at -80°C until the use. To confirm the presence of mitochondrial proteins in the extracts and the absence of cytosolic contamination in the mitochondrial fraction, 10 μg of each sonicated sample were subjected to SDS–PAGE and probed with an anti-porin antibody (Abcam, Cambridge, United Kingdom), a mitochondrial marker, and with an anti-glyceraldehyde 3-phosphate dehydrogenase antibody (GAPDH; Santa Cruz Biotechnology Inc., Santa Cruz, CA, United States), a cytosolic marker. Mitochondrial extracts were used only if they had detectable levels of porin and undetectable levels of GAPDH. To exclude any mitochondrial contamination in the cytosolic extracts, the absence of porin and the presence of GAPDH in the latter was analyzed by Western blotting (Supplementary Figure S1). Nuclear proteins were extracted using the Nuclear Extract Kit (Active Motif, La Hulpe, Belgium). 10 μg of nuclear extracts were subjected to SDS–PAGE and probed with antibodies against: proliferator-activated receptor gamma coactivator 1-α (PGC-1α; Abcam), an index of increased mitochondrial biogenesis ([Buondonno et al., 2016]), or TATA box Binding Protein (TBP; Santa Cruz Biotechnology Inc.), as control of equal protein loading.
(§4) The amount of 1, 2, 15, and 16 in the mitochondrial and cytosolic fractions was determined by LC-ESI-MS analyses. LC-ESI-MS analyses were performed with an Acquity Ultra Performance LC^TM (Waters Corporation, Milford, MA, United States), equipped with BSM, SM, CM, and PDA detector. All the chromatographic separations were performed on a Zorbax Eclipse XDB-C18 (5 μm, 150 mm × 4.6 mm) (Agilent Technologies) as a stationary phase. The supernatant samples obtained from incubation were filtered through a 0.45 μm pore size PTFE membrane filter before use. Aliquots (5 μl) were injected onto the system and eluted with a mobile phase (flow rate, 0.5 ml/min) consisting of A, 0.1% formic acid solution, and B, acetonitrile. The following gradient was used: 0–5 min (A = 50%, B = 50%), 5–7 min (to A = 20%, B = 80%), 7–8 min (A = 20%, B = 80%), 8–10 min (to A = 50%, B = 50%). The eluate was injected into the electrospray ion source (ESI), and monitored using Micromass Quattro microTM API ESCi multi-mode ionization Enabled as detector. MS spectra were acquired and processed using MassLynx software. The operating conditions on the triple quadruple mass spectrometer were as follows: positive mode; drying gas (nitrogen) heated at 350°C at a flow rate of 800 l/h; nebulizer gas (nitrogen) at 80 l/h; capillary voltage in positive mode at 3000 V; cone voltage at 30 V. The molecular ion [M]^+ was employed for quantitative measurements of analytes. The values obtained from integration of the peak of compounds were interpolated in a calibration curve obtained using standard solutions at 0.01 to 5 μM. The amount of each compound in the mitochondrial and cytosolic fractions was expressed as pmol/mg proteins.
(§5) FIGURE 5 Intra-mitochondrial and cytosolic accumulation of TPP-derivatives. […]

[4] = test system: A549 cells; assay: Mitochondrial/cytosolic distribution by LC-ESI-MS; format: cell-based, Human; conditions: for intracellular hydrolysis of the ester to the parent phenol: 4 h incubation, 0.1 and 1 μM; for penetration into cells / intracellular concentration after direct incubation: A549, 4 h incubation with 0.1 and 1 μM; for mitochondrial vs cytosolic distribution after incubation with 2: 4 h incubation with 0.1 and 1 μM of 2; for cytosolic concentration of 15 after incubation with 1: cytosolic fraction
Description: as §3, §4, §5

[5] = test system: A549 cells; assay: Cell viability (neutral red); format: cell-based, Human; conditions: for IC50: cell viability, CompuSyn; for cell viability: A549, 0.1, 1 or 10 μM, 72 h
Source text: as §1, §2

Row | Structure (SMILES) | IC50 [1] [µM] | logP [2] | concentration in BEAS-2B cells compared with A549 cells [3] | intracellular hydrolysis of the ester to the parent phenol [4] | penetration into cells [4] | IC50 ([5]; A549 lung cancer cells) [µM] | IC50 ([5]; Homo sapiens, A549, A549 lung cancer cells) [µM] | mitochondrial vs cytosolic distribution after incubation with 2 [4] | cell viability [1] | cell viability [5] | intracellular concentration after direct incubation [3] | cytosolic concentration of 15 after incubation with 1 ([4]; 4 h incubation with 0.1 μM of 1) | mitochondrial accumulation of 15 after incubation with 1 ([4]; 4 h incubation with 0.1 μM of 1, mitochondrial fraction) | cytosolic concentration of 15 after incubation with 1 ([4]; 4 h incubation with 1 μM of 1) | intracellular concentration after direct incubation [4]
1 | CC(=O)Oc1ccc(C[P+](c2ccccc2)(c2ccccc2)c2ccccc2)cc1.[Br-] [Compound 1] | 5.26 ± 0.25 | 0.64 | at least ten fold lower | fast hydrolysis into phenol 15 | penetrate in good extent | – | – | – | – | – | – | – | – | – | –
2 | O=C(Oc1ccc(C[P+](c2ccccc2)(c2ccccc2)c2ccccc2)cc1C(F)(F)F)c1ccccc1.[Br-] [Compound 2] | 7.36 ± 0.45 | 3.15 | at least ten fold lower | more stable with respect to acetate | penetrate in good extent | 0.55 ± 0.07 | < 1 | accumulate almost exclusively at mitochondrial level | – | – | – | – | – | – | –
3 | Oc1ccc(C[P+](c2ccccc2)(c2ccccc2)c2ccccc2)cc1.[Br-] [Compound 15] | – | 0.5 | – | – | – | – | – | – | nor reduced cell viability | nor reduced cell viability | very low | below detection limit | easily detectable | very low | very low
4 | Oc1ccc(C[P+](c2ccccc2)(c2ccccc2)c2ccccc2)cc1C(F)(F)F.[Br-] [Compound 16] | – | 1.02 | – | – | – | – | – | accumulate almost exclusively at mitochondrial level | nor reduced cell viability | nor reduced cell viability | very low | – | – | – | very low
